Source: PubChem BioAssay (NCI)
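Where inhibition never reached the appropriate level, the endpoint shown equals the highest concentration tested. Otherwise, values were interpolated linearly from a five-concentration, 48-hour dose response in 96-well plates. TGI: total growth inhibition.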

Legend:
Assay in all cases: growth of human tumour cells (NCI), 48 h
LOX IMVI melanoma = tested on: LOX IMVI melanoma
OVCAR-3 ovarian = tested on: OVCAR-3 ovarian
HCC-2998 colon = tested on: HCC-2998 colon
K-562 leukemia = tested on: K-562 leukemia
RXF 393 renal = tested on: RXF 393 renal
IGROV1 ovarian = tested on: IGROV1 ovarian
HOP-92 NSCLC = tested on: HOP-92 NSCLC
MDA-N = tested on: MDA-N
A498 renal = tested on: A498 renal
NCI-H460 lung = tested on: NCI-H460 lung
SW-620 colon = tested on: SW-620 colon
RPMI-8226 leukemia = tested on: RPMI-8226 leukemia
NCI-H226 lung = tested on: NCI-H226 lung
SK-MEL-5 melanoma = tested on: SK-MEL-5 melanoma
HOP-62 NSCLC = tested on: HOP-62 NSCLC
MALME-3M melanoma = tested on: MALME-3M melanoma
COLO 205 colon = tested on: COLO 205 colon
NCI-H23 lung = tested on: NCI-H23 lung
HCT-15 colon = tested on: HCT-15 colon
OVCAR-4 ovarian = tested on: OVCAR-4 ovarian
HL-60(TB) leukemia = tested on: HL-60(TB) leukemia
KM12 colon = tested on: KM12 colon
HCT-116 colon = tested on: HCT-116 colon
SR leukemia = tested on: SR leukemia
MCF7 breast = tested on: MCF7 breast
HS 578T breast = tested on: HS 578T breast
HT29 colon = tested on: HT29 colon
T-47D breast = tested on: T-47D breast
MDA-MB-231 breast = tested on: MDA-MB-231 breast
SK-OV-3 ovarian = tested on: SK-OV-3 ovarian
PC-3 prostate = tested on: PC-3 prostate
U251 CNS = tested on: U251 CNS
786-0 renal = tested on: 786-0 renal
EKVX NSCLC = tested on: EKVX NSCLC
SK-MEL-28 melanoma = tested on: SK-MEL-28 melanoma
SK-MEL-2 melanoma = tested on: SK-MEL-2 melanoma
UACC-62 melanoma = tested on: UACC-62 melanoma
ACHN renal = tested on: ACHN renal
NCI/ADR-RES ovarian = tested on: NCI/ADR-RES ovarian
SN12C renal = tested on: SN12C renal
SF-268 CNS = tested on: SF-268 CNS
MOLT-4 leukemia = tested on: MOLT-4 leukemia
OVCAR-8 ovarian = tested on: OVCAR-8 ovarian
M14 melanoma = tested on: M14 melanoma
SNB-19 CNS = tested on: SNB-19 CNS
UACC-257 melanoma = tested on: UACC-257 melanoma
SF-539 CNS = tested on: SF-539 CNS
DU-145 prostate = tested on: DU-145 prostate
SF-295 CNS = tested on: SF-295 CNS
A549 NSCLC = tested on: A549 NSCLC
MDA-MB-435 = tested on: MDA-MB-435
NCI-H522 lung = tested on: NCI-H522 lung
OVCAR-5 ovarian = tested on: OVCAR-5 ovarian

Measured: TGI

O=C1C[C@@]23CCC4(CC2CCC[C@H]3O1)OCCO4 (stereo partly drawn)
> 100 µM: all assays above
